PubChem BioAssay AID1259407 (Chemical Carcinogenesis Research Information System (CCRIS), 2018)
Activity calls are given as the source filed them. No rule for the calls is given here.

Test system: CCRIS mutagenicity, Ames/micronucleus/aberration tests
Experiment: CCRIS mutagenicity studies

Compound: CC(=O)/C=C/c1ccc2c(c1)OCO2
- mutagenic call (Test System: AMES SALMONELLA TYPHIMURIUM, Strain/Indicator: TA98, Metabolic Activation: HAMSTER, LIVER, S-9, AROCLOR 1254 (10%), Method: PREINCUBATION): inactive; negative
- mutagenic call (Test System: AMES SALMONELLA TYPHIMURIUM, Strain/Indicator: TA98, Metabolic Activation: NONE, Method: PREINCUBATION): inactive; negative
- mutagenic call (Test System: AMES SALMONELLA TYPHIMURIUM, Strain/Indicator: TA98, Metabolic Activation: RAT, LIVER, S-9, AROCLOR 1254 (10%), Method: PREINCUBATION): inactive; negative
- mutagenic call (Test System: AMES SALMONELLA TYPHIMURIUM, Strain/Indicator: TA100, Metabolic Activation: HAMSTER, LIVER, S-9, AROCLOR 1254 (10%), Method: PREINCUBATION): inactive; negative
- mutagenic call (Test System: AMES SALMONELLA TYPHIMURIUM, Strain/Indicator: TA100, Metabolic Activation: NONE, Method: PREINCUBATION): inactive; negative
- mutagenic call (Test System: AMES SALMONELLA TYPHIMURIUM, Strain/Indicator: TA100, Metabolic Activation: RAT, LIVER, S-9, AROCLOR 1254 (10%), Method: PREINCUBATION): inactive; negative
- mutagenic call (Test System: AMES SALMONELLA TYPHIMURIUM, Strain/Indicator: TA1535, Metabolic Activation: HAMSTER, LIVER, S-9, AROCLOR 1254 (10%), Method: PREINCUBATION): inactive; negative
- mutagenic call (Test System: AMES SALMONELLA TYPHIMURIUM, Strain/Indicator: TA1535, Metabolic Activation: NONE, Method: PREINCUBATION): inactive; negative
- mutagenic call (Test System: AMES SALMONELLA TYPHIMURIUM, Strain/Indicator: TA1535, Metabolic Activation: RAT, LIVER, S-9, AROCLOR 1254 (10%), Method: PREINCUBATION): inactive; negative
- mutagenic call (Test System: AMES SALMONELLA TYPHIMURIUM, Strain/Indicator: TA1537, Metabolic Activation: HAMSTER, LIVER, S-9, AROCLOR 1254 (10%), Method: PREINCUBATION): inactive; negative
- mutagenic call (Test System: AMES SALMONELLA TYPHIMURIUM, Strain/Indicator: TA1537, Metabolic Activation: NONE, Method: PREINCUBATION): inactive; negative
- mutagenic call (Test System: AMES SALMONELLA TYPHIMURIUM, Strain/Indicator: TA1537, Metabolic Activation: RAT, LIVER, S-9, AROCLOR 1254 (10%), Method: PREINCUBATION): inactive; negative

Compound: CC(=O)[O-].CC(=O)[O-].CC(=O)[O-].[Cr+3]
- mutagenic call (End Point: IN VITRO MICRONUCLEUS, Test System: CHL/IU CELLS, Metabolic Activation: NONE): active; positive
- mutagenic call (Test System: UDS RAT HEPATOCYTES, Strain/Indicator: THY INCORP, Metabolic Activation: NONE, Method: AUTORADIOGRAPHY): inactive; negative

Compound: O=Nn1cc(CCO)c2ccccc21
- mutagenic call (Test System: AMES SALMONELLA TYPHIMURIUM, Strain/Indicator: TA97A, Metabolic Activation: NONE, Method: STANDARD PLATE): active; positive
- mutagenic call (Test System: AMES SALMONELLA TYPHIMURIUM, Strain/Indicator: TA98, Metabolic Activation: NONE, Method: STANDARD PLATE): active; positive
- mutagenic call (Test System: AMES SALMONELLA TYPHIMURIUM, Strain/Indicator: TA100, Metabolic Activation: NONE, Method: STANDARD PLATE): active; positive
- mutagenic call (Test System: AMES SALMONELLA TYPHIMURIUM, Strain/Indicator: TA1535, Metabolic Activation: NONE, Method: STANDARD PLATE): active; positive
- mutagenic call (Test System: AMES SALMONELLA TYPHIMURIUM, Strain/Indicator: TA1537, Metabolic Activation: NONE, Method: STANDARD PLATE): active; positive
